Measured values reported in patent US8466309B2, “Amino acid derivatives, method for preparing same, and therapeutic use thereof” (priority 2008, dated 2013).

Experiments:
Assay type in all cases: in vivo
male OF1 mice [1] = assay: Plantar test: thermal hyperalgesia after partial ligature of the sciatic nerve
Method: (§1) This test was described in detail by A. B. Malmberg and A. I. Basbaum, Partial sciatic nerve injury in the mouse as a model of neuropathic pain: behavioural and neuroanatomical correlates. Pain, (1998) 76, 215-222.
(§2) It was conducted on male OF1 mice (Charles River), of 18-20 g, n=39, by partial ligature of the sciatic nerve on the ipsilateral side. The animals are tested in the period (3-26 days) after the operation.
Measurement of hyperalgesia was carried out according to the method described by K. Hargreaves et al., A new sensitive method for measuring thermal nociception in cutaneous hyperalgesia, Pain, (1988), 32, 77-88, by using as a heat source, the “Plantar test” apparatus (Bioseb, France). The intensity of the nociceptive stimulus is calibrated to 8-10 s with an automatic stopping threshold (cut-off time) at 20 s. The average of the withdrawals of the paw induced by the heat, was measured on the ipsilateral paws (damaged nerve) and contralateral paws (intact nerve). This measurement was carried out 3 times on each paw. Mechanical allodynia is measured as described by S. R. Chaplan et al., Quantitative assessment of tactile allodynia in the rat paw, J. Neurosci. Meth. (1994), 53, 55-63. The ipsilateral (lesion) and contralateral (control) paws are tested as earlier. The mechanical antiallodynic effect is measured by the method of Von Frey with filaments of increasing size exerting also increasing pressure.
FIG. 3: Neuropathic pain model: partial ligature of the sciatic nerve (mice). Response generated by per os administration of the carrier (□) or of the compound of Example 10 (▪): removal of the paw (in second) versus time (in minutes).
Carrier: EtOH/0.5% methylcellulose (1.5/98.5)
Tests carried out at day 14 post-surgery; ipsilateral paw
Abscissa: time in minutes, ordinate: withdrawal of the paw in seconds
Plantar test: evaluation of thermal hyperalgia
Average of the contralateral paws: compound 10 at 90 min=8.3 s.

male OF1 mice [2] = assay: Von Frey test: mechanical allodynia after partial ligature of the sciatic nerve; settings: oral 50 mg/kg, maximum at 60 min, day 14 post-surgery
Method: as §1, §2
Measurement of hyperalgesia was carried out according to the method described by K. Hargreaves et al., A new sensitive method for measuring thermal nociception in cutaneous hyperalgesia, Pain, (1988), 32, 77-88, by using as a heat source, the “Plantar test” apparatus (Bioseb, France). The intensity of the nociceptive stimulus is calibrated to 8-10 s with an automatic stopping threshold (cut-off time) at 20 s. The average of the withdrawals of the paw induced by the heat, was measured on the ipsilateral paws (damaged nerve) and contralateral paws (intact nerve). […] Mechanical allodynia is measured as described by S. R. Chaplan et al., Quantitative assessment of tactile allodynia in the rat paw, J. Neurosci. […] The mechanical antiallodynic effect is measured by the method of Von Frey with filaments of increasing size exerting also increasing pressure.
The effect of the compound of Example 10 on mechanical allodynia is measured by the Von Frey test. […]

male OF1 mice [3] = assay: Formalin test (phase I), number of paw lickings after oral administration; settings: 120 minutes after administration (FIG. 2)
Description: A/Formalin Test (Phase I) […]
The animals (male OF1 mice) come from the Charles River breeder (France) and weigh 25-35 g at the beginning of the experiment. The weight of each mouse is taken into account for administering the product.
The test is based on the procedure described by S. HUNSKAAR et al., Formalin test in mice, a useful technique for evaluating mild analgesics, J. Neurosci. Methods […], 14, 69-75.
The mice (n=8) are individually placed in a transparent enclosure (50×25 cm) and become accustomed to this environment for 20 minutes. After this period, 20 μL of formalin (5% HCHO) in solution in saline solution (H2O, 0.9% NaCl), are injected subcutaneously on the plantar face of the right paw of the animal. A 26 syringe connected to a microsyringe is used. Each mouse is then immediately placed back into the test enclosure and pain (nociceptive) responses are measured for 5 minutes (early phase). Only the lickings of the paw are counted. […]
The analgesic action of the product is measured by the decrease in the number of lickings of the lesioned paw, as compared with the number of lickings of the animal which has received the carrier alone. […]

CSCCC(CSSCC(Cc1ccccc1)C(=O)NCC(=O)O)NC(=O)OC(C)OC(=O)C(C)C (stereo not drawn) [Example 10, 1-{1-[2-(carboxymethyl-carbamoyl)-3-phenyl-propyl-disulfanylmethyl]-3-methylsulfanyl-propylcarbamoyl-oxy}-ethyl isobutyric acid ester]
withdrawal of the paw, average of the contralateral paws (male OF1 mice [1]; 50 mg/kg, at 90 min, intact nerve side): 8.3 s | maximum effect on thermal hyperalgesia (male OF1 mice [1]; p.o. 50 mg/kg, at 80 min): 100% | withdrawal of the paw (ipsilateral paw) (male OF1 mice [1]; p.o. 50 mg/kg, at 80 min, plantar test, day 14 post-surgery): 8.2 ± 0.9 s | decrease of thermal hyperalgesia induced by partial ligature of the sciatic nerve (male OF1 mice [1]; p.o. 50 mg/kg, period from 45 to 150 min, day 14 post-surgery, ipsilateral paw): 65-100% | anti-allodynic effect, maximum, as % of the maximum response (non-treated control) (male OF1 mice [2]): 75%

NH2—CH(CH2CH2SCH3)—CH2—S—S—CH2—CH(CH2C6H5)—CONH—CH2—CONH—CO—CH(CH3)—O—CO—OCH2CH3 [Compound 15]
analgesic activity at 120 minutes (male OF1 mice [3]): no longer has any activity
